≈ marks a conversion by molar mass, not a printed value.
Tested on: Enterobacteriaceae spp. strains
Test: In vitro activity (MIC) against Enterobacteriaceae spp. strains

Molecule CO[C@H]1/C=C/O[C@@]2(C)Oc3c(C)c(O)c4c(O)c(c5c(nc6cc(C)ccn65)c4c3C2=O)NC(=O)/C(C)=C\C=C\[C@H](C)[C@H](O)[C@@H](C)[C@@H](O)[C@@H](C)[C@H](OC(C)=O)[C@@H]1C [Rifaximin, reference compound] has an MIC (Escherichia coli, E. coli 97) of 32 µg/mL (≈ 40.7 µM), an MIC (Escherichia coli, E. coli 100) of 32 µg/mL (≈ 40.7 µM) and an MIC (Escherichia coli, E. coli 102) of 16 µg/mL (≈ 20.4 µM). The MIC (Escherichia coli, E. coli 103) was 32 µg/mL (≈ 40.7 µM), the MIC (Escherichia coli, E. coli 109) was 32 µg/mL (≈ 40.7 µM) and the MIC (Escherichia coli, E. coli 110) was 32 µg/mL (≈ 40.7 µM). For the same molecule, the MIC (Escherichia coli, E. coli 112) was 32 µg/mL (≈ 40.7 µM), the MIC (Escherichia coli, E. coli 113) was 32 µg/mL (≈ 40.7 µM) and the MIC (Escherichia coli, E. coli 117) was 16 µg/mL (≈ 20.4 µM). For the same molecule, the MIC (Escherichia coli, E. coli 118) was 32 µg/mL (≈ 40.7 µM), the MIC (Escherichia coli, E. coli 120) was 32 µg/mL (≈ 40.7 µM) and the MIC (Escherichia coli, E. coli 140) was 32 µg/mL (≈ 40.7 µM). The MIC (Escherichia coli, E. coli 171) was 32 µg/mL (≈ 40.7 µM), the MIC (Escherichia coli, E. coli 342) was 32 µg/mL (≈ 40.7 µM) and the MIC (Escherichia coli, E. coli 343) was 32 µg/mL (≈ 40.7 µM). It also gave an MIC (Escherichia coli, E. coli 345) of 32 µg/mL (≈ 40.7 µM), an MIC (Escherichia coli, E. coli 349) of 32 µg/mL (≈ 40.7 µM) and an MIC (Escherichia coli, E. coli 351) of 32 µg/mL (≈ 40.7 µM). For the same molecule, the MIC (Klebsiella aerogenes, E. aerogenes 235) was 32 µg/mL (≈ 40.7 µM), the MIC (Klebsiella aerogenes, E. aerogenes 281) was 32 µg/mL (≈ 40.7 µM) and the MIC (Klebsiella aerogenes, E. aerogenes 290) was 32 µg/mL (≈ 40.7 µM). It also gave an MIC (Klebsiella aerogenes, E. aerogenes 1023) of 32 µg/mL (≈ 40.7 µM), an MIC (Klebsiella aerogenes, E. aerogenes 1030) of 32 µg/mL (≈ 40.7 µM) and an MIC (Klebsiella aerogenes, E. aerogenes 1031) of 32 µg/mL (≈ 40.7 µM). The MIC (Klebsiella oxytoca, K. oxytoca 4) was 32 µg/mL (≈ 40.7 µM), the MIC (Klebsiella oxytoca, K. oxytoca 18) was 32 µg/mL (≈ 40.7 µM) and the MIC (Klebsiella oxytoca, K. oxytoca 479) was 32 µg/mL (≈ 40.7 µM). For the same molecule, the MIC (Klebsiella oxytoca, K. oxytoca 499) was 32 µg/mL (≈ 40.7 µM), the MIC (Klebsiella pneumoniae, K. pneumoniae 17) was 32 µg/mL (≈ 40.7 µM) and the MIC (Klebsiella pneumoniae, K. pneumoniae 19) was 32 µg/mL (≈ 40.7 µM). For the same molecule, the MIC (Klebsiella pneumoniae, K. pneumoniae 76) was 32 µg/mL (≈ 40.7 µM), the MIC (Klebsiella pneumoniae, K. pneumoniae 80) was 32 µg/mL (≈ 40.7 µM) and the MIC (Klebsiella pneumoniae, K. pneumoniae 91) was 32 µg/mL (≈ 40.7 µM). The MIC (Klebsiella pneumoniae, K. pneumoniae 1064) was 32 µg/mL (≈ 40.7 µM), the MIC (Morganella morganii, M. morganii 42) was 16 µg/mL (≈ 20.4 µM) and the MIC (Morganella morganii, M. morganii 48) was 32 µg/mL (≈ 40.7 µM). The MIC (Morganella morganii, M. morganii 50) was 32 µg/mL (≈ 40.7 µM), the MIC (Morganella morganii, M. morganii 57) was 32 µg/mL (≈ 40.7 µM) and the MIC (Morganella morganii, M. morganii 67) was 32 µg/mL (≈ 40.7 µM). It also gave an MIC (Morganella morganii, M. morganii 101) of 32 µg/mL (≈ 40.7 µM), an MIC (Morganella morganii, M. morganii 105) of 32 µg/mL (≈ 40.7 µM) and an MIC (Morganella morganii, M. morganii 108) of 32 µg/mL (≈ 40.7 µM). It also gave an MIC (Morganella morganii, M. morganii 453) of 8 µg/mL (≈ 10.2 µM), an MIC (Morganella morganii, M. morganii 458) of 32 µg/mL (≈ 40.7 µM) and an MIC (Morganella morganii, M. morganii 461) of 32 µg/mL (≈ 40.7 µM). It also gave an MIC (Morganella morganii, M. morganii 462) of 32 µg/mL (≈ 40.7 µM), an MIC (Morganella morganii, M. morganii 923) of 16 µg/mL (≈ 20.4 µM) and an MIC (Morganella morganii, M. morganii 932) of 32 µg/mL (≈ 40.7 µM). The MIC (Morganella morganii, M. morganii 935) was 32 µg/mL (≈ 40.7 µM), the MIC (Morganella morganii, M. morganii 1006) was 8 µg/mL (≈ 10.2 µM) and the MIC (Proteus mirabilis, P. mirabilis 465) was 32 µg/mL (≈ 40.7 µM). For the same molecule, the MIC (Proteus mirabilis, P. mirabilis 466) was 32 µg/mL (≈ 40.7 µM), the MIC (Proteus mirabilis, P. mirabilis 469) was 32 µg/mL (≈ 40.7 µM) and the MIC (Proteus mirabilis, P. mirabilis 470) was 16 µg/mL (≈ 20.4 µM). The MIC (Proteus mirabilis, P. mirabilis 471) was 8 µg/mL (≈ 10.2 µM), the MIC (Proteus mirabilis, P. mirabilis 472) was 8 µg/mL (≈ 10.2 µM) and the MIC (Proteus mirabilis, P. mirabilis 473) was 16 µg/mL (≈ 20.4 µM). The MIC (Proteus mirabilis, P. mirabilis 477) was 32 µg/mL (≈ 40.7 µM), the MIC (Proteus mirabilis, P. mirabilis 479) was 32 µg/mL (≈ 40.7 µM) and the MIC (Proteus mirabilis, P. mirabilis 480) was 32 µg/mL (≈ 40.7 µM). The MIC (Proteus mirabilis, P. mirabilis 489) was 32 µg/mL (≈ 40.7 µM), the MIC (Proteus mirabilis, P. mirabilis 928) was 32 µg/mL (≈ 40.7 µM) and the MIC (Proteus mirabilis, P. mirabilis 972) was 32 µg/mL (≈ 40.7 µM). The MIC (Proteus mirabilis, P. mirabilis 983) was 16 µg/mL (≈ 20.4 µM), the MIC (Proteus mirabilis, P. mirabilis 985) was 32 µg/mL (≈ 40.7 µM) and the MIC (Proteus mirabilis, P. mirabilis 987) was 32 µg/mL (≈ 40.7 µM). The MIC (Proteus mirabilis, P. mirabilis 988) was 8 µg/mL (≈ 10.2 µM), the MIC (Proteus mirabilis, P. mirabilis 990) was 32 µg/mL (≈ 40.7 µM) and the MIC (Proteus mirabilis, P. mirabilis 991) was 32 µg/mL (≈ 40.7 µM). For the same molecule, the MIC (Proteus mirabilis, P. mirabilis 993) was 16 µg/mL (≈ 20.4 µM), the MIC (Proteus mirabilis, P. mirabilis 995) was 32 µg/mL (≈ 40.7 µM) and the MIC (Proteus mirabilis, P. mirabilis 996) was 32 µg/mL (≈ 40.7 µM). It also gave an MIC (Proteus mirabilis, P. mirabilis 997) of 32 µg/mL (≈ 40.7 µM), an MIC (Proteus mirabilis, P. mirabilis 998) of 8 µg/mL (≈ 10.2 µM) and an MIC (Providencia stuartii, P. stuartii 94) of 32 µg/mL (≈ 40.7 µM). For the same molecule, the MIC (Providencia stuartii, P. stuartii 299) was 16 µg/mL (≈ 20.4 µM), the MIC (Providencia stuartii, P. stuartii 301) was 32 µg/mL (≈ 40.7 µM) and the MIC (Providencia stuartii, P. stuartii 306) was 16 µg/mL (≈ 20.4 µM). The MIC (Providencia stuartii, P. stuartii 312) was 32 µg/mL (≈ 40.7 µM), the MIC (Providencia stuartii, P. stuartii 459) was 32 µg/mL (≈ 40.7 µM) and the MIC (S. odorifera 59) was 32 µg/mL (≈ 40.7 µM). For the same molecule, the MIC (Serratia marcescens, S. marcescens 38) was 32 µg/mL (≈ 40.7 µM), the MIC (Serratia marcescens, S. marcescens 45) was 32 µg/mL (≈ 40.7 µM) and the MIC (Serratia marcescens, S. marcescens 59) was 32 µg/mL (≈ 40.7 µM). The MIC (Serratia marcescens, S. marcescens 63) was 32 µg/mL (≈ 40.7 µM), the MIC (Stenotrophomonas maltophilia, S. maltophilia 1203) was 32 µg/mL (≈ 40.7 µM) and the MIC (Stenotrophomonas maltophilia, S. maltophilia 1208) was 32 µg/mL (≈ 40.7 µM).
